Reference: patent US9089509B2, “Method of treatment of age-related macular degeneration” (YEDA RESEARCH AND DEVELOPMENT CO., LTD., priority 2006, dated 2015)

Assays:
[1] = tested on: retinal ganglion cells (RGCs); conditions: cited from earlier work
[2] = tested on: Tg-AD mice (APPK595N, M596L+PS1ΔE9); assay: Morris water maze (MWM) spatial learning/memory in Cop-1-vaccinated Tg-AD mice; type: in vivo, mouse; conditions: acquisition and reversal tasks (FIGS. 7A-7B)
Experimental: (§1) Each mouse was subcutaneously injected five times with a total of 100 μg of high-molecular-weight (TV-5010 DS, from batch no. 486220205; Teva Pharmaceutical Industries, Petach Tikva, Israel) emulsified in 200 μl PBS, from experimental day 0 until day 24, twice during the first week and once a week thereafter.
Spatial learning/memory was assessed by performance on a hippocampus-dependent visuo-spatial learning task in the Morris water maze (MWM) and carried out as described (Lichtenwalner et al., 2001).
MWM behavior scores were analyzed using […]. Treatment group and trial block were used as sources of variation to evaluate the significance of differences between mean scores during acquisition trial blocks in the MWM.
Two weeks before the end of the experiment, all mice were tested in a Morris water maze (MWM) for cognitive activity, as reflected by their performance of a hippocampus-dependent spatial learning/memory task. […] Differences in cognitive performance were manifested in both the acquisition (FIG. 7A) and the reversal tasks (FIG. 7B).

[3] = tested on: Tg-AD mice (APPK595N, M596L+PS1ΔE9); assay: Cop-1 vaccination of Tg-AD mice: neurogenesis in hippocampal dentate gyrus (BrdU, NeuN, DCX); type: in vivo, mouse
Experimental: For BrdU staining, sections were washed with PBS and incubated in 2N HCl at 37° C. for 30 min. Sections were blocked for 1 h with blocking solution [PBS containing 20% normal horse serum and 0.1% Triton X-100, or PBS containing mouse immunoglobulin blocking reagent obtained from Vector Laboratories (Burlingame, Calif.)].
For immunohistochemistry, tissue sections were treated with a permeabilization/blocking solution containing 10% FCS, 2% bovine serum albumin, 1% glycine, and 0.05% Triton X-100 (Sigma-Aldrich, St. Louis). Tissue sections were stained overnight at 4° C. with specified combinations of the following primary antibodies: rat anti-BrdU (1:200; Oxford Biotechnology, Kidlington, Oxfordshire, UK), goat anti-doublecortin (anti-DCX) (1:400; Santa Cruz Biotechnology, Santa Cruz, Calif.), and mouse anti-neuronal nuclear protein (anti-NeuN) (1:200; Chemicon). […] Expression of IGF-I was detected by goat anti-IGF-I Abs (1:20; R&D Systems). Expression of TNF-α was detected by goat anti-TNF-α Abs (1:100; R&D Systems). T cells were detected with anti-CD3 polyclonal Abs (rabbit, 1:100; DakoCytomation, CA). […]
For in-vivo experiments, the numbers of Aβ plaques and CD11b^+ microglia in the hippocampus were counted at 300-μm intervals in 6-8 coronal sections (30 μm) from each mouse. Neurogenesis in the dentate gyrus was evaluated by counting of pre-mature neurons (DCX^+), proliferating cells (BrdU^+), and newly formed mature neurons (BrdU^+/NeuN^+) in six coronal sections (370 μm apart) per mouse brain. To obtain an estimate of the total number of labeled cells per dentate gyrus, the total number of cells counted in the selected coronal sections from each brain was multiplied by the volume index (the ratio between the volume of the dentate gyrus and the total combined volume of the selected sections). […] Quantification of CD3^+, CD11b^+ and CD11c^+ cells were analyzed from 30-50 Aβ-plaques of each mouse tested in this study. […]

[4] = tested on: Tg-AD mice (APPK595N, M596L+PS1ΔE9); assay: Cop-1 vaccination of Tg-AD mice: Aβ plaques, microglial phenotype and T cells in hippocampus (immunohistochemistry); type: in vivo, mouse
Experimental: For immunohistochemistry, tissue sections were treated with a permeabilization/blocking solution containing 10% FCS, 2% bovine serum albumin, 1% glycine, and 0.05% Triton X-100 (Sigma-Aldrich, St. Louis). Tissue sections were stained overnight at 4° C. with specified combinations of the following primary antibodies: rat anti-BrdU (1:200; Oxford Biotechnology, Kidlington, Oxfordshire, UK), goat anti-doublecortin (anti-DCX) (1:400; Santa Cruz Biotechnology, Santa Cruz, Calif.), and mouse anti-neuronal nuclear protein (anti-NeuN) (1:200; Chemicon). Secondary antibodies were FITC-conjugated donkey anti-goat, Cy-3-conjugated donkey anti-mouse, and Cy-3- or Cy-5-conjugated donkey anti-rat (1:200; Jackson ImmunoResearch, West Grove, Pa.). CD11b (MAC1; 1:50; BD—Pharmingen) or FITC-conjugated 113-4 was used for labeling of microglia. Anti-MHC-II Abs (rat, clone IBL-5/22; 1:50) was used to detect expression of cell-surface MHC-II proteins. To detect expression of CD11c hamster anti-CD11c (1:100; eBioscience, San Diego, Calif.) was used. Anti-Aβ (human amino-acid residues 1-17) (mouse, clone 6E10; Chemicon) was used to detect expression of human Aβ. Expression of IGF-I was detected by goat anti-IGF-I Abs (1:20; R&D Systems). Expression of TNF-α was detected by goat anti-TNF-α Abs (1:100; R&D Systems). T cells were detected with anti-CD3 polyclonal Abs (rabbit, 1:100; DakoCytomation, CA). Propidium iodide (1 μg/ml; Molecular Probes, Invitrogen, Carlsbad, Calif.), was used for nuclear staining.
Nineteen adult double-transgenic APPK595N, M596L+PS1ΔE9 mice of the B6C3-Tg (APPswe, PSEN1dE9) 85 Dbo/J strain (Borchelt et al., 1997) were purchased from The Jackson Laboratory (Bar Harbor, Me.) and were bred and maintained in the Animal Breeding Center of The Weizmann Institute of Science. All animals were handled according to the regulations formulated by the Weizmann Institute's Animal Care and Use Committee, and all experiments and procedures were approved by the Weizmann Institute's Animal Care and Use Committee.
as §1
For in-vivo experiments, the numbers of Aβ plaques and CD11b^+ microglia in the hippocampus were counted at 300-μm intervals in 6-8 coronal sections (30 μm) from each mouse. Neurogenesis in the dentate gyrus was evaluated by counting of pre-mature neurons (DCX^+), proliferating cells (BrdU^+), and newly formed mature neurons (BrdU^+/NeuN^+) in six coronal sections (370 μm apart) per mouse brain. To obtain an estimate of the total number of labeled cells per dentate gyrus, the total number of cells counted in the selected coronal sections from each brain was multiplied by the volume index (the ratio between the volume of the dentate gyrus and the total combined volume of the selected sections). Specificity of BrdU+/NeuN+ co-expression was assayed using the confocal microscope (LSM 510) in optical sections at 1-μm intervals. Quantification of CD3^+, CD11b^+ and CD11c^+ cells were analyzed from 30-50 Aβ-plaques of each mouse tested in this study. Cell counts, numbers of Aβ plaques, plaque areas, and intensity of NeuN staining per unit area in the dentate gyrus were evaluated automatically using Image-Pro Plus 4.5 software (Media Cybernetics, Carlsbad, Calif.).
We verified the presence of both transgenes in each mouse by PCR amplification of genomic DNA. Tg-AD mice aged approximately 8 months were then vaccinated subcutaneously with Cop-1 (n=6) twice during the first week and once a week thereafter. Age-matched untreated Tg-AD mice (n=7) and non-Tg littermates (n=6) served, respectively, as untreated-Tg and wild-type controls. Seven weeks after the first Cop-1 injection all the mice were euthanized and analyzed. […]

[5] = vaccinated Tg-AD mice (FIG. 2D)

glatiramer acetate [Cop-1]
outcome of weekly administration of adjuvant-free agent ([1]; model of chronically elevated intraocular pressure (Bakalash et al., 2005)): neuroprotection
RGC loss ([1]; rat model of chronically high intraocular pressure, vaccination): significantly reduces RGC loss
MWM performance vs non-Tg littermates [2]: did not differ significantly
MWM performance vs untreated-Tg-AD mice [2]: superior to that of the untreated-Tg-AD mice
newly formed mature neurons (BrdU+/NeuN+) in dentate gyrus ([3]; compared to non-Tg littermates (FIG. 6B)): similar
pre-mature neurons (DCX+ cells) in dentate gyri ([3]; relative to non-Tg littermates (FIG. 6C)): slightly but significantly more
proliferating cells (BrdU+) in dentate gyrus ([3]; vs untreated-Tg counterparts (FIG. 6A)): significantly more
Aβ plaques in brain cryosections stained for human Aβ ([4]; s.c. vaccination, seven weeks after first injection, vs untreated Tg-AD mice (FIG. 2A)): very few
MHC-II expression by microglia adjacent to residual Aβ plaques [4, 5]: most of the microglia adjacent to residual Aβ plaques expressed MHC-II
TNF-α expression by microglia adjacent to residual Aβ plaques [4, 5]: hardly any of them expressed TNF-α
IGF-I expression by MHC-II+ microglia ([4]; vaccinated Tg-AD mice (FIG. 2F)): found to express IGF-I
CD11b+ cells that became CD11b+/CD11c+ cells (associated with Aβ-plaque) ([4]; vaccinated Tg-AD mice, 25% in untreated Tg-AD mice (FIG. 3C)): 87%
NeuN+ staining in hippocampal CA1 and dentate gyrus ([4]; vaccinated Tg-AD mouse relative to non-Tg littermate (FIG. 2A)): almost normal
area occupied by the plaques (Aβ-immunoreactivity) ([4]; vs age-matched untreated Tg-AD mice (FIG. 2J)): significantly smaller
total number of Aβ-plaques (30-μm hippocampal slice) ([4]; vs untreated Tg-AD mice (FIG. 2I)): significantly fewer plaques
CD11b+ microglia in hippocampus ([4]; vs untreated Tg-AD mice (FIG. 2K)): significantly fewer
T cells (CD3+) associated with Aβ-plaque ([4]; vs untreated Tg-AD mice (FIG. 2L)): significantly more
number of CD11b+ cells associated with Aβ-plaque ([4]; vs untreated Tg-AD mice (FIG. 3B)): significantly decreased
